Series [1] in a line: Ligand charge of maytansinoid conjugates. Type of series: physicochemical.
The target of a further series is human SSTR2 (Homo sapiens, UniProt P30874). Kind of series: Radioligand-receptor binding assay, [125I] somatostatin, membranes from SSTR2 expressing CHO-K1 cells. How it is done:
These conjugates were also assessed in an in vitro assay evaluating binding to the somatostatin receptor 2 (SSTR2). A radioligand-receptor binding assay was conducted at Eurofins Panlabs (Taiwan) to determine the affinity of conjugates described herein to the SSTR2. The assay measures binding of radiolabeled ligand, [^125I] labeled somatostatin, to human SSTR2 using membrane preparations from SSTR2 expressing CHO-K1 cells. Membranes were incubated with radiolabeled somatostatin (0.03 nM) in the presence of conjugate/compound starting at a dose of 10 uM using 6× serial dilutions to obtain a 10-pt curve. After a four hour incubation, membranes were filtered and washed 3× and counted to determine the remaining [^125I] somatostatin bound to the receptor. IC50 values were determined by a non-linear, least squares regression analysis using MathIQ™ (ID Business Solutions Ltd., UK).

Series [2] deals with NCI-H524 (ATCC) human lung cancer cells. It is filed as cell-based. As for the experimental part:
FIG. 1 is a graph of various conjugates represented as bars and showing on the Y-axis their activity in an H524 proliferation assay with and without competition by octreotide. […] This illustrates the suprprising finding that only maytansinoid conjugates show activity that is dependent on the receptor.
Conjugates were assessed in an in vitro assay evaluating inhibition of cell proliferation. NCI-H524 (ATCC) human lung cancer cells were plated in 96 well, V-bottomed plates (Costar) at a concentration of 5,000 cells/well and 24 hours later were treated with compound for 6 hours and further incubated 66 hours. Compound starting dose was 20 μM and three fold serial dilutions were done for a total of ten points. After 6 hours of treatment, cells were spun down, the drug containing media was removed, and fresh complete medium was added and used to resuspend the cells, which were spun again. After removal of the wash media, the cells were resuspended in complete medium, then transferred into white walled, flat bottomed 96 well plates. […] Proliferation was measured using CellTiter Glo reagent using the standard protocol (Promega) and a Glomax multi+detection system (Promega). Percent proliferation inhibition was calculated using the following formula: % inhibition=(control-treatment)/control*100. Control is defined as vehicle alone. IC50 curves were generated using the nonlinear regression analysis (four parameter) with GraphPad Prism 6.
Conjugates were tested for their activity dependence on the somatostatin receptor. Active agent Z in the conjugate was selected from auristatin, carbazitaxel, DM1, doxorubicin, platinum, SN-38 and vinblastine. Active agent Z is connected to octreotide with various linkers. Proliferation IC50 values of the conjugates were measured. Proliferation IC50 values of the conjugates without octreotide competition were also measured. The ratio of IC50 with octreotide competition and IC50 without octreotide competition is an indicator of whether activity is at least particially dependent on bind to the somatostatin receptor. […] Therefore, the activity of conjugates comprising DM1 is dependent on the binding to the somatostatin receptor.

Where [3] appears, read: read-out: H524 IC50 6 h, 6 hours treatment, further 66 hours incubation.
Where [4] appears, read: read-out: H524 IC50 with 100 μM octreotide 6 h, with 100 μM octreotide competition, 6 h treatment.

Like-named read-outs stand apart in the source and are kept apart here.

As usually defined, the Ki is a dissociation constant, usually derived from enzyme kinetics or from competition with a known ligand. Low values mean higher affinity, high ones lower affinity. As usually defined, the IC50 is the concentration that inhibits the measured activity by half.

Sequence of human SSTR2 (P30874 whole entry): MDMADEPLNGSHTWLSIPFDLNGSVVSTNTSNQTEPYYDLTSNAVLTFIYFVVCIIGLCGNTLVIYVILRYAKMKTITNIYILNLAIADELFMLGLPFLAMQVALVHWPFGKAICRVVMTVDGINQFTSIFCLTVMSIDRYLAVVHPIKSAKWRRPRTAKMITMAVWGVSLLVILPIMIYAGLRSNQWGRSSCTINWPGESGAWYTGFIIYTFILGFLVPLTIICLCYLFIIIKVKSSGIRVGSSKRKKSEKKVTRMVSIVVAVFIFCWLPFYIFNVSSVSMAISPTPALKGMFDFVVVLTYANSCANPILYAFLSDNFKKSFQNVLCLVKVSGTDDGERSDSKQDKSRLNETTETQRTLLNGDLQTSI

In the case of `CCCC(=O)N[C@H](Cc1ccccc1)C(=O)N[C@H]1CSSC[C@@H](C(=O)N[C@H](C(=O)NCCSSC(C)(C)CCC(=O)N(C)[C@@H](C)C(=O)O[C@H]2CC(=O)N(C)c3cc(cc(OC)c3Cl)C/C(C)=C/C=C/[C@@H](OC)[C@@]3(O)C[C@H](OC(=O)N3)[C@@H](C)[C@@H]3O[C@@]23C)[C@@H](C)O)NC(=O)[C@H]([C@@H](C)O)NC(=O)[C@H](CCCCN)NC(=O)[C@@H](Cc2c[nH]c3ccccc23)NC(=O)[C@H](Cc2ccc(O)cc2)NC1=O` [Conjugate 3], the Ligand charge entry in series [1] is “+1”.

Compound `COc1cc2cc(c1Cl)N(C)C(=O)C[C@H](OC(=O)[C@H](C)N(C)C(=O)CCC(C)(C)SSC[C@H](NC(=O)[C@@H]1CSSC[C@H](NC(=O)[C@@H](Cc3ccccc3)NC(=O)Nc3ccccc3)C(=O)N[C@@H](Cc3ccc(O)cc3)C(=O)N[C@H](Cc3c[nH]c4ccccc34)C(=O)N[C@@H](CCCCN)C(=O)N[C@@H]([C@@H](C)O)C(=O)N1)C(N)=O)[C@]1(C)O[C@H]1[C@H](C)[C@@H]1C[C@@](O)(NC(=O)O1)[C@H](OC)/C=C/C=C(\C)C2` [Conjugate 5] registered a Ki at human SSTR2 of 0.32 nM. Moreover, the Ligand charge entry in series [1] is recorded as “+1”. Moreover, the IC50 in series [2] (setting [3]) was determined as 7.7 nM; in series [2] (setting [4]), 317 nM.

For `COc1cc2cc(c1Cl)N(C)C(=O)C[C@H](OC(=O)[C@H](C)N(C)C(=O)CCSSC(C)(C)[C@@H](NC(=O)[C@@H]1CSSC[C@H](NC(=O)[C@H](N)Cc3ccccc3)C(=O)N[C@@H](Cc3ccc(O)cc3)C(=O)N[C@H](Cc3c[nH]c4ccccc34)C(=O)N[C@@H](CCCCN)C(=O)N[C@@H]([C@@H](C)O)C(=O)N1)C(N)=O)[C@]1(C)O[C@H]1[C@H](C)[C@@H]1C[C@@](O)(NC(=O)O1)[C@H](OC)/C=C/C=C(\C)C2` [Conjugate 8], the affinity at human SSTR2 corresponds to a Ki of 0.79 nM. For the same compound, in series [1], the Ligand charge entry is “+2”. For the same compound, the IC50 was found to be 270 nM in series [2] (setting [3]) and 467 nM in series [2] (setting [4]).

For the compound `CCNC(=O)N[C@H](Cc1ccccc1)C(=O)N[C@H]1CSSC[C@@H](C(=O)N[C@H](C(=O)N[C@H](C(N)=O)C(C)(C)SSCCC(=O)N(C)[C@@H](C)C(=O)O[C@H]2CC(=O)N(C)c3cc(cc(OC)c3Cl)C/C(C)=C/C=C/[C@@H](OC)[C@@]3(O)C[C@H](OC(=O)N3)[C@@H](C)[C@@H]3O[C@@]23C)[C@@H](C)O)NC(=O)[C@H]([C@@H](C)O)NC(=O)[C@H](CCCCN)NC(=O)[C@@H](Cc2c[nH]c3ccccc23)NC(=O)[C@H](Cc2ccc(O)cc2)NC1=O` [Conjugate 16], in series [1], the Ligand charge entry was “+1”. The values for the IC50 in series [2] (setting [3]) and in series [2] (setting [4]) were 185 nM and 516 nM, respectively.

Turning to `COc1cc2cc(c1Cl)N(C)C(=O)C[C@H](OC(=O)[C@H](C)N(C)C(=O)CCSSC(C)(C)[C@H](NC(=O)[C@@H](NC(=O)[C@@H]1CSSC[C@H](NC(=O)[C@@H](Cc3ccccc3)NCc3ccccc3)C(=O)N[C@@H](Cc3ccc(O)cc3)C(=O)N[C@H](Cc3c[nH]c4ccccc34)C(=O)N[C@@H](CCCCN)C(=O)N[C@@H]([C@@H](C)O)C(=O)N1)[C@@H](C)O)C(N)=O)[C@]1(C)O[C@H]1[C@H](C)[C@@H]1C[C@@](O)(NC(=O)O1)[C@H](OC)/C=C/C=C(\C)C2` [Conjugate 17], the Ligand charge entry in series [1] is “+2”. Also, the IC50 in series [2] (setting [3]) was 8.5 nM; in series [2] (setting [4]), 48 nM.

For `COc1cc2cc(c1Cl)N(C)C(=O)C[C@H](OC(=O)[C@H](C)N(C)C(=O)CCSC1CC(=O)N(CCCCCNC(=O)[C@@H](NC(=O)[C@@H]3CSSC[C@H](NC(=O)[C@@H](Cc4ccccc4)NC(=O)NC4CCCCC4)C(=O)N[C@@H](Cc4ccc(O)cc4)C(=O)N[C@H](Cc4c[nH]c5ccccc45)C(=O)N[C@@H](CCCCN)C(=O)N[C@@H]([C@@H](C)O)C(=O)N3)[C@@H](C)O)C1=O)[C@]1(C)O[C@H]1[C@H](C)[C@@H]1C[C@@](O)(NC(=O)O1)[C@H](OC)/C=C/C=C(\C)C2` (some centres unmarked) [Conjugate 22], in series [1], the Ligand charge entry was “+1”. Moreover, the IC50 in series [2] (setting [3]) was determined as 2.6 nM; in series [2] (setting [4]) it was 94 nM.

As to `CCNC(=O)N[C@H](Cc1ccccc1)C(=O)N[C@H]1CSSC[C@@H](C(=O)N[C@H](C(=O)NCCCCCN2C(=O)CC(SCCC(=O)N(C)[C@@H](C)C(=O)O[C@H]3CC(=O)N(C)c4cc(cc(OC)c4Cl)C/C(C)=C/C=C/[C@@H](OC)[C@@]4(O)C[C@H](OC(=O)N4)[C@@H](C)[C@@H]4O[C@@]34C)C2=O)[C@@H](C)O)NC(=O)[C@H]([C@@H](C)O)NC(=O)[C@H](CCCCN)NC(=O)[C@@H](Cc2c[nH]c3ccccc23)NC(=O)[C@H](Cc2ccc(O)cc2)NC1=O` (some centres unmarked) [Conjugate 23], in series [1], the Ligand charge entry was “+1”. The results for the IC50 in series [2] (setting [3]) and in series [2] (setting [4]) were 5 nM and 124 nM, respectively.

In the case of `COc1cc2cc(c1Cl)N(C)C(=O)C[C@H](OC(=O)[C@H](C)N(C)C(=O)CCSSC[C@@H](NC(=O)[C@@H]1CSSC[C@H](NC(=O)[C@@H](Cc3ccccc3)NC(C)=O)C(=O)N[C@@H](Cc3ccc(O)cc3)C(=O)N[C@H](Cc3c[nH]c4ccccc34)C(=O)N[C@@H](CCCCN)C(=O)N[C@@H]([C@@H](C)O)C(=O)N1)C(N)=O)[C@]1(C)O[C@H]1[C@H](C)[C@@H]1C[C@@](O)(NC(=O)O1)[C@H](OC)/C=C/C=C(\C)C2` [Conjugate 31], the Ki at human SSTR2 came out at 0.21 nM. Moreover, the Ligand charge entry in series [1] is on record as “+1”.

In the case of `CCNC(=O)N[C@H](Cc1ccccc1)C(=O)N[C@H]1CSSC[C@@H](C(=O)N[C@H](C(=O)N2CCCCC2)C(C)(C)SSCCC(=O)N(C)[C@@H](C)C(=O)O[C@H]2CC(=O)N(C)c3cc(cc(OC)c3Cl)C/C(C)=C/C=C/[C@@H](OC)[C@@]3(O)C[C@H](OC(=O)N3)[C@@H](C)[C@@H]3O[C@@]23C)NC(=O)[C@H]([C@@H](C)O)NC(=O)[C@H](CCCCN)NC(=O)[C@@H](Cc2c[nH]c3ccccc23)NC(=O)[C@H](Cc2ccc(O)cc2)NC1=O` [Conjugate 33], the Ligand charge result in series [1] is recorded as “+1”. In addition, the IC50 in series [2] (setting [3]) worked out at 265 nM; in series [2] (setting [4]) it was 462 nM.

For `CCNC(=O)N[C@H](Cc1ccccc1)C(=O)N[C@H]1CSSC[C@@H](C(=O)N[C@H](C(=O)N[C@@H](CSSCCC(=O)N(C)[C@@H](C)C(=O)O[C@H]2CC(=O)N(C)c3cc(cc(OC)c3Cl)C/C(C)=C/C=C/[C@@H](OC)[C@@]3(O)C[C@H](OC(=O)N3)[C@@H](C)[C@@H]3O[C@@]23C)C(N)=O)[C@@H](C)O)NC(=O)[C@H]([C@@H](C)O)NC(=O)[C@H](CCCCN)NC(=O)[C@@H](Cc2c[nH]c3ccccc23)NC(=O)[C@H](Cc2ccc(O)cc2)NC1=O` [Conjugate 36], the Ligand charge entry in series [1] is reported as “+1”. The IC50 in series [2] (setting [3]) was 0.78 nM; in series [2] (setting [4]) it was 10 nM.

At human SSTR2, `COc1cc2cc(c1Cl)N(C)C(=O)C[C@H](OC(=O)[C@H](C)N(C)C(=O)CCSSCCNC(=O)CC[C@H]1C(=O)N[C@@H](Cc3ccc(O)cc3)C(=O)N[C@H](Cc3c[nH]c4ccccc34)C(=O)N[C@@H](CCCCNC(=O)NCCCCCCN)C(=O)N[C@@H]([C@@H](C)O)C(=O)N[C@@H](Cc3ccccc3)C(=O)N1C)[C@]1(C)O[C@H]1[C@H](C)[C@@H]1C[C@@](O)(NC(=O)O1)[C@H](OC)/C=C/C=C(\C)C2` [Conjugate 55] came in with a Ki of 110 nM. For the same compound, in series [1], the Ligand charge entry is “+1”.

On to `C[C@@H](O)[C@@H]1NC(=O)[C@H](CCCCN)NC(=O)[C@@H](Cc2c[nH]c3ccccc23)NC(=O)[C@H](Cc2ccccc2)NC(=O)[C@@H](NC(=O)[C@H](N)Cc2ccccc2)CSSC[C@@H](C(=O)N[C@H](CO)[C@@H](C)O)NC1=O` [Octreotide, H2N-D-Phe-Cys-Phe-D-Trp-Lys-Thr-Cys-Thr-ol (disulfide bridge Cys2-Cys7), reference compound], for which the “effect on cell proliferation” value in series [2] (octreotide alone) was “no significant effect”.

These data come from patent publication US20190125888A1, “TARGETED CONJUGATES AND PARTICLES AND FORMULATIONS THEREOF” (priority 2015, published 2019).
